# Results: US8952024B2, “Herbicidal pyrimidone derivatives” (E I du Pont de Nemours and Company, priority 2009, dated 2015)
# Key:
# Assay type in all cases: in vivo
# [1] = tested on: bermudagrass (Cynodon dactylon); assay: Test B pre-/postemergence plant response; conditions: for Plant response rating, Bermudagrass: Postemergence
# How it was run: (§1)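 Greenhouse herbicide screen. Pre- and postemergence (1- to 4-leaf) spray of compound in solvent/surfactant mixture; loam–sand soil for pre, peat/vermiculite medium for post. Visual control rating 0–100 at 13 to 15 days after treatment.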
# [2] = tested on: blackgrass (Alopecurus myosuroides); assay: Test B pre-/postemergence plant response; conditions: for Plant response rating, Blackgrass: Postemergence
# How it was run: as §1
# [3] = tested on: cocklebur (Xanthium strumarium); assay: Test B pre-/postemergence plant response; conditions: for Plant response rating, Cocklebur: Postemergence
# How it was run: as §1
# corn (Zea mays) = assay: Test B pre-/postemergence plant response; conditions: for Plant response rating, Corn: Postemergence
# How it was run: as §1
# [4] = tested on: giant foxtail (Setaria faberii); assay: Test B pre-/postemergence plant response; conditions: for Plant response rating, Foxtail, Giant: Postemergence
# How it was run: as §1
# [5] = tested on: johnsongrass (Sorghum halepense); assay: Test B pre-/postemergence plant response; conditions: for Plant response rating, Johnsongrass: Postemergence
# How it was run: as §1
# kochia (Kochia scoparia) = assay: Test B pre-/postemergence plant response; conditions: for Plant response rating, Kochia: Postemergence
# How it was run: as §1
# [6] = tested on: morningglory (Ipomoea coccinea); assay: Test B pre-/postemergence plant response; conditions: for Plant response rating, Morningglory: Postemergence
# How it was run: as §1
# soybean (Glycine max) = assay: Test B pre-/postemergence plant response; conditions: for Plant response rating, Soybean: Postemergence
# How it was run: as §1
# wild oat (Avena fatua) = assay: Test B pre-/postemergence plant response; conditions: for Plant response rating, Oat, Wild: Postemergence
# How it was run: as §1
# [7] = tested on: canarygrass (Phalaris minor); assay: Test B postemergence plant response; conditions: for Plant response rating, Canarygrass: Postemergence
# How it was run: (§2)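 Visual ratings from 0 (no effect) to 100 (complete control), made against controls 13–15 days after treatment, kept in a greenhouse. Compounds were applied postemergence to potted plants at the 1- to 4-leaf stage (2–18 cm).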
# [8] = tested on: chickweed (Stellaria media); assay: Test B postemergence plant response; conditions: for Plant response rating, Chickweed: Postemergence
# How it was run: as §2
# [9] = tested on: windgrass (Apera spica-venti); assay: Test B postemergence plant response; conditions: for Plant response rating, Windgrass: Postemergence
# How it was run: as §2
# [10] = tested on: winter barley (Hordeum vulgare); assay: Test B postemergence plant response; conditions: for Plant response rating, Barley: Postemergence
# How it was run: as §2
# [11] = 62 g ai/ha, postemergence, 0 is no effect, 100 is complete control, 13 to 15 days
# [12] = 31 g ai/ha, 0 to 100 scale (0 no effect, 100 complete control)
# [13] = 125 g ai/ha, scale 0 to 100 (0 no effect, 100 complete control)
# [14] = 250 g ai/ha, scale 0 to 100 (0 no effect, 100 complete control)
structure (smiles),measurement,setting,value
COCCn1c(-c2cccc(F)c2)ncc(C(=O)C2=C(O)CCCC2=O)c1=O [Compound 123],Bermudagrass plant response rating (0 to 100 scale),[1]; [11],85
same,"Plant response rating, Bermudagrass",[1]; [12],80
same,"Plant response rating, Bermudagrass",[1]; [13],90
same,"Plant response rating, Bermudagrass",[1]; [14],98
same,Blackgrass plant response rating (0 to 100 scale),[2]; [11],20
same,"Plant response rating, Blackgrass",[2]; [12],20
same,"Plant response rating, Blackgrass",[2]; [13],40
same,"Plant response rating, Blackgrass",[2]; [14],80
same,Cocklebur plant response rating (0 to 100 scale),[3]; [11],80
same,"Plant response rating, Cocklebur",[3]; [12],65
same,"Plant response rating, Cocklebur",[3]; [13],100
same,"Plant response rating, Cocklebur",[3]; [14],100
same,Corn plant response rating (0 to 100 scale),corn (Zea mays); [11],70
same,"Plant response rating, Corn",corn (Zea mays); [12],35
same,"Plant response rating, Corn",corn (Zea mays); [13],75
same,"Plant response rating, Corn",corn (Zea mays); [14],80
same,"Foxtail, Giant plant response rating (0 to 100 scale)",[4]; [11],75
same,"Plant response rating, Foxtail, Giant",[4]; [12],65
same,"Plant response rating, Foxtail, Giant",[4]; [13],80
same,"Plant response rating, Foxtail, Giant",[4]; [14],85
same,Johnsongrass plant response rating (0 to 100 scale),[5]; [11],65
same,"Plant response rating, Johnsongrass",[5]; [12],35
same,"Plant response rating, Johnsongrass",[5]; [13],75
same,"Plant response rating, Johnsongrass",[5]; [14],90
same,Kochia plant response rating (0 to 100 scale),kochia (Kochia scoparia); [11],65
same,"Plant response rating, Kochia",kochia (Kochia scoparia); [12],60
same,"Plant response rating, Kochia",kochia (Kochia scoparia); [13],80
same,"Plant response rating, Kochia",kochia (Kochia scoparia); [14],100
same,Morningglory plant response rating (0 to 100 scale),[6]; [11],98
same,"Plant response rating, Morningglory",[6]; [12],70
same,"Plant response rating, Morningglory",[6]; [13],100
same,"Plant response rating, Morningglory",[6]; [14],100
same,Soybean plant response rating (0 to 100 scale),soybean (Glycine max); [11],75
same,"Plant response rating, Soybean",soybean (Glycine max); [12],60
same,"Plant response rating, Soybean",soybean (Glycine max); [13],85
same,"Plant response rating, Soybean",soybean (Glycine max); [14],90
same,"Oat, Wild plant response rating (0 to 100 scale)",wild oat (Avena fatua); [11],5
same,"Plant response rating, Oat, Wild",wild oat (Avena fatua); [12],0
same,"Plant response rating, Oat, Wild",wild oat (Avena fatua); [13],30
same,"Plant response rating, Oat, Wild",wild oat (Avena fatua); [14],60
same,Canarygrass plant response rating (0 to 100 scale),[7]; [11],40
same,"Plant response rating, Canarygrass",[7]; [12],25
same,"Plant response rating, Canarygrass",[7]; [13],55
same,"Plant response rating, Canarygrass",[7]; [14],85
same,Chickweed plant response rating (0 to 100 scale),[8]; [11],75
same,"Plant response rating, Chickweed",[8]; [12],70
same,"Plant response rating, Chickweed",[8]; [13],95
same,"Plant response rating, Chickweed",[8]; [14],100
same,Windgrass plant response rating (0 to 100 scale),[9]; [11],60
same,"Plant response rating, Windgrass",[9]; [12],30
same,"Plant response rating, Windgrass",[9]; [13],80
same,Barley plant response rating (0 to 100 scale),[10]; [11],10
same,"Plant response rating, Barley",[10]; [12],5
same,"Plant response rating, Barley",[10]; [13],25
same,"Plant response rating, Barley",[10]; [14],50
